Results as given in US20150126516A1, “PIPERIDINE COMPOUND AND ITS USE IN PEST CONTROL” (Sumitomo Chemical Company, Limited, priority 2012, published 2015).
Where two headings read alike, the source gives them in different places.

How the values were obtained:
cotton aphids = experiment: Controlling effect on cotton aphid, spray on inoculated cucumber seedlings; assay type: in vivo, Aphis gossypii; conditions: 144 h; 500 ppm active ingredient, 20 ml sprayed on cucumber seedlings with about 30 cotton aphids, 6 days after spraying
[1] = system: summer fruit tortrix moths (Adoxophyes orana); experiment: Controlling effect on summer fruit tortrix moth, treated artificial feed; assay type: in vivo; conditions: 168 h
Description: Liquid medicines for a test were prepared by diluting each formulation of the compounds 1, 3, 6, 10, 12, 16, 17, 20, 21, 23, 26 to 29, 33, 38, and 42 of the present invention, which were obtained from Formulation Example 5, with water so that the concentration of the active ingredients becomes 500 ppm.
Silk Mates 2S (artificial feed: Nosan Corporation), which were sliced in a thickness of 2 mm, were placed on the bottom of polyethylene cups and 1 mL of each of the above-described liquid medicines for a test was irrigated thereto.
After air-drying, 30 first-instar larvae of summer fruit tortrix moths (Adoxophyes orana) were released in each cup, which was then covered with a lid. The cups were stored at 25° C., the number of surviving insects was counted after 7 days, and the mortality rate was obtained using the following formula.
(§1) Mortality(%)=(the number of dead insects/the number of insects provided for a test)×100

diamondback moths = experiment: Controlling effect on diamondback moth, spray on cabbages; assay type: in vivo; conditions: Plutella xylostella, 120 h, read-out: Mortality rate
Description: Spray solutions for a test were prepared by diluting each formulation of the compounds 1, 11 to 14, 16, 17, 36, and 38 of the present invention, which were obtained from Formulation Example 5, with water so that the concentration of the active ingredients becomes 500 ppm.
Meanwhile, each of the above-described liquid solutions for the test was sprayed on cabbages in a third-leaf stage which were planted in polyethylene cups at a ratio of 20 mL/cup. After the liquid solutions were dried, the stems and leaves were cut and accommodated in each 50 mL cup. 5 second-instar larvae of diamondback moths were released in each cup, which was then covered with a lid. The cups were stored at 25° C., the number of surviving insects was counted after 5 days, and the mortality rate was obtained using the following formula.
as §1

common houseflies = experiment: Controlling effect on common housefly, treated filter paper with sucrose bait; assay type: in vivo; conditions: Musca domestica, 24 h, read-out: Mortality rate
Description: Liquid medicines for a test were prepared by diluting a formulation of the compound 28 of the present invention, which was obtained from Formulation Example 5, with water so that the concentration of the active ingredients becomes 500 ppm.
A filter paper having a diameter of 5.5 cm was spread on the bottom of a polyethylene cup having the same size as that of the filter paper, 0.7 ml ml of any one of the above-described liquid medicines for a test was added dropwise onto the filter paper, and 30 mg of sucrose was uniformly put therein as bait. 10 female imagoes of common houseflies were released in the polyethylene cup, which was then covered with a lid. The number of live and dead common houseflies were checked after 24 hours and the mortality rate was obtained using the following formula.
Mortality(%)=(the number of dead insectse/the number of insects provided for a test)×100

[2] = 500 ppm, 1 mL on artificial feed, 30 first-instar larvae, 25° C., after 7 days, read-out: Mortality
[3] = 500 ppm, 20 mL/cup sprayed on cabbages, 5 second-instar larvae, 25° C., after 5 days

| SMILES | pest or weed control at 500 ppm (cotton aphids) | mortality at 500 ppm [1] | other results |
| --- | --- | --- | --- |
| O=C(NCC1(c2ccccc2)CCN(CCc2ccccc2Cl)CC1)c1cc(Cl)nc(Cl)c1 [compound 29, 2,6-dichloro-N-((1-(2-chlorophenethyl)-4-phenylpiperidin-4-yl)methyl)isonicotinamide] | ≥ 90% | ≥ 90% |  |
| O=C(NCC1(c2ccccc2)CCN(CCc2ccc(C(F)(F)F)cc2)CC1)c1ccnc(Cl)c1 [compound 10, 2-chloro-N-((4-phenyl-1-(4-(trifluoromethyl)phenethyl)piperidin-4-yl)methyl)isonicotinamide] |  |  | mortality at 500 ppm [1, 2]: ≥ 90% |
| O=C(NCC1(c2ccccc2)CCN(CCc2ccccc2C(F)(F)F)CC1)c1cc(Cl)cc(Cl)c1 [compound 17, 3,5-dichloro-N-((4-phenyl-1-(2-(trifluoromethyl)phenethyl)piperidin-4-yl)methyl)benzamide] |  |  | mortality at 500 ppm [1, 2]: ≥ 90%; mortality at 500 ppm (diamondback moths; [3]): ≥ 80% |
| COc1ccccc1C(=O)NCC1(c2ccccn2)CCN(CCc2ccccc2C(F)(F)F)CC1 [compound 42, 2-methoxy-N-((4-(pyridin-2-yl)-1-(2-(trifluoromethyl)phenethyl)piperidin-4-yl)methyl)benzamide] | ≥ 90% | ≥ 90% |  |
| O=C(NCC1(c2ccccn2)CCN(CCc2ccccc2C(F)(F)F)CC1)c1ccccc1Cl [compound 41, 2-chloro-N-((4-(pyridin-2-yl)-1-(2-(trifluoromethyl)phenethyl)piperidin-4-yl)methyl)benzamide] | ≥ 90% |  |  |
| O=C(NCC1(c2ccccc2)CCN(CCc2ccccc2)CC1)c1ccnc(Cl)c1 [compound 2, 2-chloro-N-((1-phenethyl-4-phenylpiperidin-4-yl)methyl)isonicotinamide] | ≥ 90% |  |  |
| O=C(NCC1(c2ccccc2)CCN(CCc2cccc(Cl)c2Cl)CC1)c1cc(Cl)nc(Cl)c1 [compound 33, 2,6-dichloro-N-((1-(2,3-dichlorophenethyl)-4-phenylpiperidin-4-yl)methyl)isonicotinamide] |  |  | mortality at 500 ppm [1, 2]: ≥ 90% |
| O=C(NCC1(c2ccccc2)CCN(CCc2ccccc2C(F)(F)F)CC1)c1c(F)cc(F)cc1F [compound 36, 2,4,6-trifluoro-N-((4-phenyl-1-(2-(trifluoromethyl)phenethyl)piperidin-4-yl)methyl)benzamide] | ≥ 90% |  | mortality at 500 ppm (diamondback moths): ≥ 80% |
| O=C(NCC1(c2ccccc2)CCN(CCc2ccccc2C(F)(F)F)CC1)c1cccc(Cl)c1 [compound 13, 3-chloro-N-((4-phenyl-1-(2-(trifluoromethyl)phenethyl)piperidin-4-yl)methyl)benzamide] |  |  | mortality at 500 ppm (diamondback moths; [3]): ≥ 80% |
| COc1ccccc1C(=O)NCC1(c2ccccc2)CCN(CCc2ccccc2C(F)(F)F)CC1 [compound 28, 2-methoxy-N-((4-phenyl-1-(2-(trifluoromethyl)phenethyl)piperidin-4-yl)methyl)benzamide] | ≥ 90% | ≥ 90% | mortality at 500 ppm (common houseflies): ≥ 70% |
| O=C(NCC1(c2ncccc2F)CCN(CCc2ccccc2C(F)(F)F)CC1)c1ccnc(Cl)c1 [compound 40, 2-chloro-N-((4-(3-fluoropyridin-2-yl)-1-(2-(trifluoromethyl)phenethyl)piperidin-4-yl)methyl)isonicotinamide] | ≥ 90% |  |  |
| O=C(NCC1(c2ccccc2)CCN(CCc2ccccc2C(F)(F)F)CC1)c1ncccc1Cl [compound 21, 3-chloro-N-((4-phenyl-1-(2-(trifluoromethyl)phenethyl)piperidin-4-yl)methyl)picolinamide] | ≥ 90% | ≥ 90% |  |
| O=C(NCC1(c2ccccc2)CCN(CCc2ccccc2C(F)(F)F)CC1)c1ccnc(Cl)c1 [compound 3, 2-chloro-N-((4-phenyl-1-(2-(trifluoromethyl)phenethyl)piperidin-4-yl)methyl)isonicotinamide] | ≥ 90% | ≥ 90% |  |
| O=C(NCC1(c2ccccc2)CCN(CCc2ccccc2C(F)(F)F)CC1)c1ccc(Cl)cc1 [compound 14, 4-chloro-N-((4-phenyl-1-(2-(trifluoromethyl)phenethyl)piperidin-4-yl)methyl)benzamide] |  |  | mortality at 500 ppm (diamondback moths; [3]): ≥ 80% |
| O=C(NCC1(c2ccccc2)CCN(CCc2ccccc2)CC1)c1ccc(Cl)cc1 [compound 6, 4-chloro-N-((1-phenethyl-4-phenylpiperidin-4-yl)methyl)benzamide] |  |  | mortality at 500 ppm [1, 2]: ≥ 90% |
| O=C(NCC1(c2cccnc2)CCN(CCc2ccccc2C(F)(F)F)CC1)c1cc(Cl)nc(Cl)c1 [compound 39, 2,6-dichloro-N-((4-(pyridin-3-yl)-1-(2-(trifluoromethyl)phenethyl)piperidin-4-yl)methyl)isonicotinamide] | ≥ 90% |  |  |
| O=C(NCC1(c2ccccc2)CCN(CCc2ccccc2C(F)(F)F)CC1)c1cccnc1Cl [compound 24, 2-chloro-N-((4-phenyl-1-(2-(trifluoromethyl)phenethyl)piperidin-4-yl)methyl)nicotinamide] | ≥ 90% |  |  |
| O=C(NCC1(c2ccccc2)CCN(CCc2ccccc2)CC1)c1cc(Cl)nc(Cl)c1 [compound 20, 2,6-dichloro-N-((1-phenethyl-4-phenylpiperidin-4-yl)methyl)isonicotinamide] | ≥ 90% | ≥ 90% |  |
| COc1ccccc1CCN1CCC(CNC(=O)c2cc(Cl)nc(Cl)c2)(c2ccccc2)CC1 [compound 26, 2,6-dichloro-N-((1-(2-methoxyphenethyl)-4-phenylpiperidin-4-yl)methyl)isonicotinamide] | ≥ 90% | ≥ 90% |  |
| O=C(NCC1(c2ccccn2)CCN(CCc2ccccc2C(F)(F)F)CC1)c1cc(Cl)nc(Cl)c1 [compound 38, 2,6-dichloro-N-((4-(pyridin-2-yl)-1-(2-(trifluoromethyl)phenethyl)piperidin-4-yl)methyl)isonicotinamide] | ≥ 90% | ≥ 90% | mortality at 500 ppm (diamondback moths): ≥ 80% |
| Cc1ccccc1CCN1CCC(CNC(=O)c2cc(Cl)nc(Cl)c2)(c2ccccc2)CC1 [compound 27, 2,6-dichloro-N-((1-(2-methylphenethyl)-4-phenylpiperidin-4-yl)methyl)isonicotinamide] | ≥ 90% | ≥ 90% |  |
| O=C(NCC1(c2ccccc2)CCN(CCc2ccccc2C(F)(F)F)CC1)c1ccccn1 [compound 16, N-((4-phenyl-1-(2-(trifluoromethyl)phenethyl)piperidin-4-yl)methyl)picolinamide] | ≥ 90% | ≥ 90% | mortality at 500 ppm (diamondback moths): ≥ 80% |
| O=C(NCC1(c2ccccc2)CCN(CCc2ccccc2C(F)(F)F)CC1)c1ccccc1Cl [compound 12, 2-chloro-N-((4-phenyl-1-(2-(trifluoromethyl)phenethyl)piperidin-4-yl)methyl)benzamide] | ≥ 90% | ≥ 90% | mortality at 500 ppm (diamondback moths): ≥ 80% |
| O=C(NCC1(c2ccccc2Cl)CCN(CCc2ccccc2C(F)(F)F)CC1)c1ccccc1Cl [compound 25, 2-chloro-N-((4-(2-chlorophenyl)-1-(2-(trifluoromethyl)phenethyl)piperidin-4-yl)methyl)benzamide] | ≥ 90% |  |  |
| O=C(NCC1(c2ccccc2)CCN(CCc2ccccc2C(F)(F)F)CC1)c1cc(Cl)nc(Cl)c1 [compound 1, 2,6-dichloro-N-((4-phenyl-1-(2-(trifluoromethyl)phenethyl)piperidin-4-yl)methyl)isonicotinamide] |  | ≥ 90% | mortality at 500 ppm (diamondback moths): ≥ 80% |
| O=C(NCC1(c2cccc(Cl)c2)CCN(CCc2ccccc2C(F)(F)F)CC1)c1ccccc1Cl [compound 23, 2-chloro-N-((4-(3-chlorophenyl)-1-(2-(trifluoromethyl)phenethyl)piperidin-4-yl)methyl)benzamide] |  |  | mortality at 500 ppm [1, 2]: ≥ 90% |
| O=C(NCC1(c2ccccc2)CCN(CCc2ccccc2C(F)(F)F)CC1)c1ccccc1 [compound 11, N-((4-phenyl-1-(2-(trifluoromethyl)phenethyl)piperidin-4-yl)methyl)benzamide] | ≥ 90% |  | mortality at 500 ppm (diamondback moths): ≥ 80% |
